Measured values reported in PubChem BioAssay (NCI).
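Cultured in 96-well plates, cells were exposed to test compound for 48 hours across five concentrations. At the TGI there is no net growth.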

Tests used:
Test in all cases: NCI-60 cell line screen, 48 h
[1] = test system: 786-0 renal
[2] = test system: A498 renal
[3] = test system: A549 NSCLC
[4] = test system: ACHN renal
[5] = test system: BT-549 breast
[6] = test system: CAKI-1 renal
[7] = test system: CCRF-CEM leukemia
[8] = test system: COLO 205 colon
[9] = test system: DLD-1 colon
[10] = test system: DMS 114 small cell lung
[11] = test system: DMS 273 small cell lung
[12] = test system: DU-145 prostate
[13] = test system: EKVX NSCLC
[14] = test system: HCC-2998 colon
[15] = test system: HCT-116 colon
[16] = test system: HCT-15 colon
[17] = test system: HL-60(TB) leukemia
[18] = test system: HOP-62 NSCLC
[19] = test system: HOP-92 NSCLC
[20] = test system: HS 578T breast
[21] = test system: HT29 colon
[22] = test system: IGROV1 ovarian
[23] = test system: K-562 leukemia
[24] = test system: KM12 colon
[25] = test system: KM20L2 colon
[26] = test system: LOX IMVI melanoma
[27] = test system: LXFL 529 NSCLC
[28] = test system: M14 melanoma
[29] = test system: M19-MEL melanoma
[30] = test system: MALME-3M melanoma
[31] = test system: MCF7 breast
[32] = test system: MDA-MB-231 breast
[33] = test system: MDA-MB-435
[34] = test system: MDA-N
[35] = test system: MOLT-4 leukemia
[36] = test system: NCI-H226 lung
[37] = test system: NCI-H23 lung
[38] = test system: NCI-H460 lung
[39] = test system: NCI-H522 lung
[40] = test system: NCI/ADR-RES ovarian
[41] = test system: OVCAR-3 ovarian
[42] = test system: OVCAR-4 ovarian
[43] = test system: OVCAR-5 ovarian
[44] = test system: OVCAR-8 ovarian
[45] = test system: PC-3 prostate
[46] = test system: RPMI-8226 leukemia
[47] = test system: RXF 393 renal
[48] = test system: SF-268 CNS
[49] = test system: SF-295 CNS
[50] = test system: SF-539 CNS
[51] = test system: SK-MEL-2 melanoma
[52] = test system: SK-MEL-28 melanoma
[53] = test system: SK-MEL-5 melanoma
[54] = test system: SK-OV-3 ovarian
[55] = test system: SN12C renal
[56] = test system: SNB-19 CNS
[57] = test system: SNB-75 CNS
[58] = test system: SNB-78 CNS
[59] = test system: SR leukemia
[60] = test system: SW-620 colon
[61] = test system: T-47D breast
[62] = test system: TK-10 renal
[63] = test system: U251 CNS
[64] = test system: UACC-257 melanoma
[65] = test system: UACC-62 melanoma
[66] = test system: UO-31 renal
[67] = test system: XF 498 CNS

COC1=CC(=O)c2c(O)c3c(c(O)c2C1=O)C=C(C)OC3O (configuration not stated)
TGI [1]: 10.9 µM
TGI [2]: 4.91 µM
TGI [3]: 4.35 µM
TGI [4]: 6.89 µM
TGI [5]: 3.5 µM
TGI [6]: 14.5 µM
TGI [7]: 16.1 µM
TGI [8]: 0.746 µM
TGI [9]: 3.87 µM
TGI [10]: 2.96 µM
TGI [11]: 2.17 µM
TGI [12]: 2.18 µM
TGI [13]: 20.2 µM
TGI [14]: 3.74 µM
TGI [15]: 2.3 µM
TGI [16]: 2.07 µM
TGI [17]: > 23 µM
TGI [18]: 7.04 µM
TGI [19]: 20.9 µM
TGI [20]: 7.9 µM
TGI [21]: 2.7 µM
TGI [22]: 5.57 µM
TGI [23]: 5.07 µM
TGI [24]: 12.2 µM
TGI [25]: 10.4 µM
TGI [26]: 1.9 µM
TGI [27]: 2.7 µM
TGI [28]: 0.845 µM
TGI [29]: 0.502 µM
TGI [30]: 0.877 µM
TGI [31]: 1.57 µM
TGI [32]: 5.09 µM
TGI [33]: 2.5 µM
TGI [34]: 3.08 µM
TGI [35]: 5.04 µM
TGI [36]: 8.24 µM
TGI [37]: 2.25 µM
TGI [38]: 3.18 µM
TGI [39]: 3.95 µM
TGI [40]: 3.76 µM
TGI [41]: 6.33 µM
TGI [42]: 4.39 µM
TGI [43]: 5.73 µM
TGI [44]: 2.82 µM
TGI [45]: 16.3 µM
TGI [46]: 5.83 µM
TGI [47]: 3.92 µM
TGI [48]: 5.86 µM
TGI [49]: 5.06 µM
TGI [50]: 3.4 µM
TGI [51]: 5.19 µM
TGI [52]: 3.65 µM
TGI [53]: 0.66 µM
TGI [54]: 23.7 µM
TGI [55]: 2.08 µM
TGI [56]: 7.12 µM
TGI [57]: 3.97 µM
TGI [58]: 4.14 µM
TGI [59]: 5.46 µM
TGI [60]: 2.84 µM
TGI [61]: 7.05 µM
TGI [62]: 7.9 µM
TGI [63]: 7.72 µM
TGI [64]: 0.754 µM
TGI [65]: 1.85 µM
TGI [66]: 13.3 µM
TGI [67]: 4.72 µM

C=CCC(OCCOCC)c1cc(OCCOCC)ccc1OC (configuration not stated)
TGI [1]: > 100 µM
TGI [3]: > 100 µM
TGI [4]: > 100 µM
TGI [6]: > 100 µM
TGI [7]: > 100 µM
TGI [8]: > 100 µM
TGI [11]: > 100 µM
TGI [13]: > 100 µM
TGI [14]: > 100 µM
TGI [16]: > 100 µM
TGI [17]: > 100 µM
TGI [18]: > 100 µM
TGI [19]: > 100 µM
TGI [21]: > 100 µM
TGI [22]: > 100 µM
TGI [23]: > 100 µM
TGI [24]: > 100 µM
TGI [26]: > 100 µM
TGI [27]: > 100 µM
TGI [28]: > 100 µM
TGI [29]: > 100 µM
TGI [30]: > 100 µM
TGI [35]: > 100 µM
TGI [36]: > 100 µM
TGI [38]: > 100 µM
TGI [39]: > 100 µM
TGI [41]: > 100 µM
TGI [42]: > 100 µM
TGI [43]: > 100 µM
TGI [44]: > 100 µM
TGI [46]: > 100 µM
TGI [47]: > 100 µM
TGI [48]: > 100 µM
TGI [49]: > 100 µM
TGI [50]: > 100 µM
TGI [51]: > 100 µM
TGI [52]: > 100 µM
TGI [53]: > 100 µM
TGI [54]: > 100 µM
TGI [55]: > 100 µM
TGI [56]: > 100 µM
TGI [57]: > 100 µM
TGI [58]: > 100 µM
TGI [60]: > 100 µM
TGI [62]: > 100 µM
TGI [63]: > 100 µM
TGI [64]: > 100 µM
TGI [65]: > 100 µM
TGI [66]: > 100 µM
TGI [67]: > 100 µM
